Laboratory results: ChEMBL document CHEMBL1201862, “PubChem BioAssay data set” (2004)
The source made the active and inactive calls. Rule as the data show it, for most assays here: actives have a measured EC50 and inactives only a lower limit.

What was measured:
Cytochrome P450 3A4 = Cytochrome P450 3A4 (Homo sapiens, UniProt P08684); settings: Potency;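 also: confirmatory qHTS run detecting inhibitors and substrates of CYP3A4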
cells [1] = type: functional, cell-based
cells [2] = type: functional, cell-based; remark: listed apart in the source
[3] = C. albicans growth with fluconazole, confirmation, fluorescence, retest (AID 2467); type: functional, cell-based
[4] = NIH-3T3 fibroblast cytotoxicity, dose response, cytotoxicity control, cell-based, fluorescence, Alamar Blue, secondary assay (AID 2327); type: functional;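 also: NIH-3T3 mouse fibroblasts cultured with fluconazole at 8 µg/mL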
Protein RecA = target: T1, Protein RecA (Mycobacterium tuberculosis, UniProt P9WHJ3); experiment: Fluorescence Cell-Free Homogeneous Dose Retest to Identify Inhibitors of RecA-Intein Splicing Activity. [Related pubchem assays (depositor defined):AID2097, AID2223, AID489010, AID492950]; type: functional
T1 sequence (P9WHJ3 whole entry): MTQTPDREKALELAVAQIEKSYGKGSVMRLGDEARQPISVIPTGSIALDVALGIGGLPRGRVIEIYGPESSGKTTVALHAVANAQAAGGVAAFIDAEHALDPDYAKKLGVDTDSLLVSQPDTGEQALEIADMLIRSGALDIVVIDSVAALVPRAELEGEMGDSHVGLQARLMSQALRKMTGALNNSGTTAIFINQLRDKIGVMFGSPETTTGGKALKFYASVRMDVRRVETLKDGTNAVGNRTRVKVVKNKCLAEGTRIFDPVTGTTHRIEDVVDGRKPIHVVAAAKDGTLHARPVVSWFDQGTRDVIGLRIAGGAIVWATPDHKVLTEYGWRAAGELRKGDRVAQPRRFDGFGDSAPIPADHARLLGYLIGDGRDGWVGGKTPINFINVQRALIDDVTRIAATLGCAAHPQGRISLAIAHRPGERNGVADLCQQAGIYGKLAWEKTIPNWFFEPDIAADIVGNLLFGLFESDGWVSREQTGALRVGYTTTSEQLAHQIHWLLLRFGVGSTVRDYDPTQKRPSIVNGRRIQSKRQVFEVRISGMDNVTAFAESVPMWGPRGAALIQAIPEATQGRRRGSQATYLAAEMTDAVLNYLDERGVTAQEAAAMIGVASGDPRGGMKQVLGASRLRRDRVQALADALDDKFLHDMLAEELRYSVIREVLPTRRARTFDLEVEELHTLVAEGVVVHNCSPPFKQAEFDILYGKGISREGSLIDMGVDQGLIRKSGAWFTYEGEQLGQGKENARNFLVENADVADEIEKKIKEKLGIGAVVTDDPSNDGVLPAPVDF

[5] = microbe, parasite or virus in culture; type: functional; settings: Mycobacterium tuberculosis
[6] = target: T2, Heat shock factor protein 1 (Mus musculus, UniProt P38532); experiment: HSF1 potentiators in luciferase reporter cells, confirmation, cell-based, NIH3T3, luminescence, dose retest (AID 435004); type: functional;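 also: stress induced by proteasome inhibitor MG132 added 30 min after compound; luciferase reporter driven by HSF1 response element in NIH3T3 cells; actives raise luminescence as potentiators of the MG132 stress response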
T2 sequence (P38532 whole entry): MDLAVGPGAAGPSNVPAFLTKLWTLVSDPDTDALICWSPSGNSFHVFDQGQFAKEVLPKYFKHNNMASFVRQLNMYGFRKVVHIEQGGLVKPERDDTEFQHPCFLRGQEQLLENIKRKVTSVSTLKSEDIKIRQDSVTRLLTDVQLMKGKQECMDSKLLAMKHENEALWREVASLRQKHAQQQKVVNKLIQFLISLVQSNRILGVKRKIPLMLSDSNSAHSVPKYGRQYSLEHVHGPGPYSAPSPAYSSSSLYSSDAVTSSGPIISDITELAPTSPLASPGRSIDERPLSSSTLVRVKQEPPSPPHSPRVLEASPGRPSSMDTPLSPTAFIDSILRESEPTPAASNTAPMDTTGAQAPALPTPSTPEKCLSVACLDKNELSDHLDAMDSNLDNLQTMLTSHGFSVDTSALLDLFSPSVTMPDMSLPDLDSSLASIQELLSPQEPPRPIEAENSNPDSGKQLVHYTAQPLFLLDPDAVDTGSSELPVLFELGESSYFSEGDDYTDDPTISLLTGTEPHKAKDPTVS

[7] = inhibitors of PGC1a acetylation in cells, dose response, cell-based, cherry-picked samples (AID 720514); type: functional;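 also: potency may reflect raised or lowered acetylation signal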
[8] = cytotoxicity in HEK-293T cells, dose response, cytotoxicity control for TCR NF-kB inhibitor project, luminescence, T-cell screen hits (AID 489026); type: functional, cell-based;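 also: cells exposed to compound about 14 hours before the viability readout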
[9] = target: T3, Replicative DNA helicase DnaB (Mycobacterium tuberculosis, UniProt P9WMR3); experiment: DnaB intein splicing inhibitors, dose response, biochemical, cell-free fluorescence (AID 449749); type: functional
T3 sequence (P9WMR3 whole entry): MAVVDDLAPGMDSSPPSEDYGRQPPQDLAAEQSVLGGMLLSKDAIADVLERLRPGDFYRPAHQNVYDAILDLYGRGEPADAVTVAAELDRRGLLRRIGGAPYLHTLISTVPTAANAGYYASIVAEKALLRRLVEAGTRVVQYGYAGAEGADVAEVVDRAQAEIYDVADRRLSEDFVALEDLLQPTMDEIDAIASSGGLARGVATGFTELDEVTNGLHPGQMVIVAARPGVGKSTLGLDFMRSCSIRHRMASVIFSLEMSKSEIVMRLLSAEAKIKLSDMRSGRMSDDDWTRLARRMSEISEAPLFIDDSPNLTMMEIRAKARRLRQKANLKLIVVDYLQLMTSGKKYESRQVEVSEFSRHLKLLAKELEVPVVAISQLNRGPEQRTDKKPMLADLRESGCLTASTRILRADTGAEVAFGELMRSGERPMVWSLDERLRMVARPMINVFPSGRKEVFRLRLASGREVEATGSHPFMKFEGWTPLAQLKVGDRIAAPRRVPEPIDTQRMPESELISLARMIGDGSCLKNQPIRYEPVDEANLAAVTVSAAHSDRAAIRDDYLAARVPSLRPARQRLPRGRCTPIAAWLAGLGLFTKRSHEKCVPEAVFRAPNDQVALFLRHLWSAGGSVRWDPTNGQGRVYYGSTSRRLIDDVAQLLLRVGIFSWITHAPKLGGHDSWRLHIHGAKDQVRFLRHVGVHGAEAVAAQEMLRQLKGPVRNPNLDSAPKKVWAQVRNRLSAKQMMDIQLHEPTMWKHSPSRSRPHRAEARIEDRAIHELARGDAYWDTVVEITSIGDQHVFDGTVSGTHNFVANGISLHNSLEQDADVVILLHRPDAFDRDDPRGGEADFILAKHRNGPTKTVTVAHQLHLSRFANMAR

[10] = target: T4, Histone-lysine N-methyltransferase NSD2 (Homo sapiens, UniProt O96028); type: biochemical
T4 sequence (O96028 whole entry): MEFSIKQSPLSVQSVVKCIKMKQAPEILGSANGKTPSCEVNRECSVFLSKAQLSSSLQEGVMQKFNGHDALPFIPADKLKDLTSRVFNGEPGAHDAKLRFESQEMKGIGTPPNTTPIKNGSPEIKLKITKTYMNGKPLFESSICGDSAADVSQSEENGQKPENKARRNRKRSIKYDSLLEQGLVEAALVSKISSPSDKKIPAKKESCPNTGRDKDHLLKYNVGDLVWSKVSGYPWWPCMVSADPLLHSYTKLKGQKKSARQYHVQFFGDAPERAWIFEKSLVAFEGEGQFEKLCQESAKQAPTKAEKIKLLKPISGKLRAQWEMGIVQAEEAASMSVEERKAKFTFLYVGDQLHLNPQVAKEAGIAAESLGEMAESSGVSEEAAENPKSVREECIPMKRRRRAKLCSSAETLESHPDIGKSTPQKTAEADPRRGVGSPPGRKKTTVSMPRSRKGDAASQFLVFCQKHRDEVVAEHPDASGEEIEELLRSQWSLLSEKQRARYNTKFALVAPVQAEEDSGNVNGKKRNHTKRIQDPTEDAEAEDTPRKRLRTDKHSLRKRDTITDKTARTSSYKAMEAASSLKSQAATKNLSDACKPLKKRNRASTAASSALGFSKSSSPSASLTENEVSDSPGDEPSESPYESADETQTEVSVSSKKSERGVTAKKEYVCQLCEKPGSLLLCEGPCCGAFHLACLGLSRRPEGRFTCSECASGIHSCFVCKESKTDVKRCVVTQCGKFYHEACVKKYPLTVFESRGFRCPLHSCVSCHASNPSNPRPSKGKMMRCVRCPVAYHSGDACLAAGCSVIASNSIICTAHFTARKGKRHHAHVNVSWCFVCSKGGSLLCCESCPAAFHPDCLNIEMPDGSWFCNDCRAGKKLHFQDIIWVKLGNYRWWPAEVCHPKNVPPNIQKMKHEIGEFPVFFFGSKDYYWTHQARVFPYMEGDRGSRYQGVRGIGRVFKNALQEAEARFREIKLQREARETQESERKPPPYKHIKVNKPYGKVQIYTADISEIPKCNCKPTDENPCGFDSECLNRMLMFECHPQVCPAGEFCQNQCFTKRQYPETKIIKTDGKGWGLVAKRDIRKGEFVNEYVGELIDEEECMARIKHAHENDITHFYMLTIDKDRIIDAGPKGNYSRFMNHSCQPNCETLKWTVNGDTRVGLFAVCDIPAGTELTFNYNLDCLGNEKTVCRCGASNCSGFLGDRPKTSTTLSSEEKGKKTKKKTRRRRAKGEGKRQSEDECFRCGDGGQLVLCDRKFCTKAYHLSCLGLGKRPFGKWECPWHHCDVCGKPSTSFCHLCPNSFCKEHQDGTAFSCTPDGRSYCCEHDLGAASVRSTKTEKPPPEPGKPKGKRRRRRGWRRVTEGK

[11] = target: T5, DNA repair protein RAD52 homolog (Homo sapiens, UniProt P43351); type: functional, biochemical
T5 sequence (P43351 whole entry): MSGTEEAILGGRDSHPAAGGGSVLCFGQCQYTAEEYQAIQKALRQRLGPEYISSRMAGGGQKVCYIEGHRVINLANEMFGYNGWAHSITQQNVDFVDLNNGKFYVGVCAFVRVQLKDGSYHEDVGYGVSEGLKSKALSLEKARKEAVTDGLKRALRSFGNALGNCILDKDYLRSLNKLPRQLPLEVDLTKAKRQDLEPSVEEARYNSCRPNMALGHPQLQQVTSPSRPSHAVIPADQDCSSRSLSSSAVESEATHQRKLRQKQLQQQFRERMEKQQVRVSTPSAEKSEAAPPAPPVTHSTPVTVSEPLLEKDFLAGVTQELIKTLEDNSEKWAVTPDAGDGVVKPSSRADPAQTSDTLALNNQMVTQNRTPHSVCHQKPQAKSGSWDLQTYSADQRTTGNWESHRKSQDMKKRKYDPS

[12] = inhibitors of intracellular T. cruzi replication, confirmation, NIH3T3 host cells, beta-gal luminescence (AID 2044); type: functional, cell-based;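 also: intracellular parasites grown in NIH/3T3 mouse fibroblasts as host cells; luminescent beta-galactosidase reporter signal from transgenic T. cruzi replicating inside host cells; inhibitors lower the luminescence signal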
[13] = cytotoxicity toward NIH3T3 fibroblasts, dose response, counter-screen, cell-based, ATP luminescence, mouse fibroblasts (AID 2010); type: functional;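 also: cells exposed to compound for about 90 hours before reading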

Sequence of Cytochrome P450 3A4 (P08684 whole entry): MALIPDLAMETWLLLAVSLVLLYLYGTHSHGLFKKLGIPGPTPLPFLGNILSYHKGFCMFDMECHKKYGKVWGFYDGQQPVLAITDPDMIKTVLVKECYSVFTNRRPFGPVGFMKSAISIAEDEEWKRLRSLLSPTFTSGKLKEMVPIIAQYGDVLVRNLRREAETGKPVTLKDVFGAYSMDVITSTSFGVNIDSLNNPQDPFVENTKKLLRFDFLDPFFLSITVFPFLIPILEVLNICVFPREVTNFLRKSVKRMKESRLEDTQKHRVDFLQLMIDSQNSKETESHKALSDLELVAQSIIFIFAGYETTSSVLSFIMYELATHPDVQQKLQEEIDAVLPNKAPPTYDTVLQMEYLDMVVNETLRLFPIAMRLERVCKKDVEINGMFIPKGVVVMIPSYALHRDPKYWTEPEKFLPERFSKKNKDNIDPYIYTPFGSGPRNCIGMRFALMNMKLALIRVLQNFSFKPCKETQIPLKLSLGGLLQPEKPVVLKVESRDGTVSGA

Question: For CC(=O)Oc1ccc2c(c1C(C)C)CCC1C(C)(C)CCC[C@@]21C (stereo not given in full), which AC50 (Cytochrome P450 3A4) is on record?
Answer: 39.8 µM (inconclusive)

Question: With FC(F)(F)c1ccc(CN2C[C@@H]3C(c4ccc(Cl)nc4)C4(c5ccccc5)CC3(C4)[C@H]2c2ccccc2)cc1 (stereo not given in full) as the compound, how does the AC50 (Cytochrome P450 3A4) read?
Answer: 20 µM (inconclusive)

Question: For CC1CCN(C(=O)CS(=O)(=O)Cc2ccccc2)CC1, which EC50 (cells [1]) is on record?
Answer: > 350 µM (not active)

Question: And the EC50 (cells [2])?
Answer: 273 µM (active)

Question: For CC(=O)N1CCC(=NNC(=O)c2cc3ccccc3cc2O)CC1, which EC50 (cells [1]) is on record?
Answer: > 350 µM (not active)

Question: And the EC50 [3]?
Answer: > 38 µM (not active)

Question: And the EC50 (cells [2])?
Answer: 22.2 µM (active)

Question: What about the EC50 [4] of the same compound?
Answer: > 150 µM (inactive)

Question: Which EC50 (cells [1]) does the source give for CCOC(=O)c1sc(=S)n(-c2ccccc2)c1C here?
Answer: > 350 µM (not active)

Question: And the EC50 (cells [2])?
Answer: > 350 µM (not active)

Question: With COC(=O)[C@@H]1C[C@H]2CC[C@H](O)C[C@H]2N1Cc1ccc(C)s1 as the compound, how does the AC50 (Cytochrome P450 3A4) read?
Answer: 15.8 µM (inconclusive)

Question: Which EC50 (cells [1]) does the source give for Cc1cc(C)cc(N(CC(=O)Nc2ccccc2C(=O)N2CCOCC2)S(C)(=O)=O)c1 here?
Answer: > 350 µM (not active)

Question: What about the EC50 (cells [2]) of the same compound?
Answer: > 350 µM (not active)

Question: With CCN(CCCNC(=O)CCNC(=O)Cn1ccc2ccccc2c1=O)c1ccccc1 as the compound, how does the EC50 (cells [1]) read?
Answer: > 350 µM (not active)

Question: What about the EC50 (cells [2]) of the same compound?
Answer: > 350 µM (not active)

Question: With CCCSc1nnc(Sc2nnnn2-c2ccccc2)s1 as the compound, how does the EC50 (Protein RecA) read?
Answer: 14.5 µM (active)

Question: And the CC50 [5]?
Answer: 6.83 µM (active)

Question: And the EC50 [6]?
Answer: 22 µM (active)

Question: What about the AC50 [7] of the same compound?
Answer: 0.771 µM (active)

Question: What about the IC50 [8] of the same compound?
Answer: > 80 µM (inactive)

Question: What about the AC50 [9] of the same compound?
Answer: 12.5 µM (active)

Question: For O=C(c1ccc(Cl)cc1)C(Cn1cncn1)C(Sc1ccccc1)c1ccccc1 (stereo not given), which AC50 [7] is on record?
Answer: 13 µM (active)

Question: With CCN(CC)CCNc1ncnc2c1sc1nc(N3CCCC3)c3c(c12)CC(C)(C)OC3 as the compound, how does the AC50 [10] read?
Answer: 19.7 µM (active)

Question: And the AC50 [11]?
Answer: 4.72 µM (active)

Question: What about the EC50 [12] of the same compound?
Answer: 2.86 µM (active)

Question: And the EC50 [13]?
Answer: 10.2 µM (active)

Question: With Cc1nc(NC2CCCCC2)c2nc(-c3ccccc3)n(CCCN3CCOCC3)c2n1 as the compound, how does the AC50 (Cytochrome P450 3A4) read?
Answer: 5.01 µM (inconclusive)

Question: For CCCCCCn1nc(C(=O)Nc2nc3c(s2)CCCC3)c2ccccc2c1=O, which EC50 (cells [1]) is on record?
Answer: > 350 µM (not active)

Question: What about the EC50 (cells [2]) of the same compound?
Answer: 115 µM (active)

Question: For C[C@@H]1CN([C@H](C)CO)C(=O)c2cc(C3=CCCCC3)cnc2O[C@@H]1CN(C)Cc1ccccc1, which AC50 [7] is on record?
Answer: 28 µM (active)
